One data set is described as follows: physchem. The settings on record: buffer, pH 7.4.
A short description of another data set: in vitro. The following applies: CD-1, mouse, liver microsomes.

Structures are written as SMILES. ≈ marks a conversion by molar mass, not a printed value.

Take `CCC(=O)c1ccc(NC(=O)Nc2ccc(-c3nc(N4CCOCC4)c4cccnc4n3)cc2)cc1`: in “physchem”, the solubility at 1.5 h, 200 µM worked out at 11.4 µM (≈ 5.5 µg/mL). For the same compound, in the data set “in vitro”, the half-life at 1 µM is above 60 min.

`O=C(Nc1ccc(-c2nc(N3CCOCC3)c3cccnc3n2)cc1)Nc1ccc(S(=O)(=O)Nc2ccc(F)cc2)cc1` had a solubility at 1.5 h, 200 µM in the data set “physchem” of 4.2 µM (≈ 2.52 µg/mL). In addition, the half-life at 1 µM in the data set “in vitro” turned out to be 59.6 min.

Compound `O=C(Nc1ccc(C(=O)CCl)cc1)Nc1ccc(-c2nc(N3CCOCC3)c3ncccc3n2)cc1` returned a solubility at 1.5 h, 200 µM in “physchem” below 2 µM. Besides, the half-life at 1 µM in “in vitro” is above 60 min.

Consider `O=C(Nc1ccc(-c2nc(N3CCOCC3)c3ncccc3n2)cc1)Nc1ccc(S(=O)(=O)Nc2ccc(F)cc2)cc1`, for which, in the data set “physchem”, the solubility at 1.5 h, 200 µM was below 2 µM. Also, the half-life at 1 µM in “in vitro” is above 60 min.

In the case of `CC(=O)c1ccc(NC(=O)Nc2ccc(-c3nc(N4CCOCC4)c4cccnc4n3)cc2)cc1`, the solubility at 1.5 h, 200 µM in the data set “physchem” was below 2 µM. The compound also showed a half-life at 1 µM in “in vitro” of 59 min.

For `O=C(Nc1ccc(-c2nc(N3CCOCC3)c3ncccc3n2)cc1)Nc1ccc(S(=O)(=O)Nc2ccc(F)cc2F)cc1`, in “physchem”, the solubility at 1.5 h, 200 µM was below 2 µM. Moreover, the half-life at 1 µM in “in vitro” is above 60 min.

In the data set “physchem”, `CCOC(=O)c1ccc(NC(=O)Nc2ccc(-c3nc(N4CCOCC4)c4cccnc4n3)cc2)cc1` came in with a solubility at 1.5 h, 200 µM below 2 µM. The compound further yielded a half-life at 1 µM in the data set “in vitro” above 60 min.

With `O=C(Nc1ccc(-c2nc(N3CCOCC3)c3cccnc3n2)cc1)Nc1ccc(S(=O)(=O)Nc2ccccc2)cc1`, in “physchem”, the solubility at 1.5 h, 200 µM is below 2 µM. Moreover, the half-life at 1 µM in “in vitro” was 26.9 min.

`O=C(Nc1ccc(-c2nc(N3CCOCC3)c3cccnc3n2)cc1)Nc1ccc(S(=O)(=O)Nc2ccc(F)cc2F)cc1` registered a solubility at 1.5 h, 200 µM in the data set “physchem” below 2 µM. Besides, in the data set “in vitro”, the half-life at 1 µM is 60 min.

On to `O=C(Nc1ccc(-c2nc(N3CCOCC3)c3cccnc3n2)cc1)Nc1cccc(CO)c1`, for which the concentration in solution in the data set “physchem” (solubility at 1.5 h, 200 µM) was 21.8 µM (≈ 9.95 µg/mL). Further, the half-life at 1 µM in the data set “in vitro” worked out at 30 min.

As to `O=C(Nc1ccccc1)Nc1ccc(-c2nc(N3CCOCC3)c3ncccc3n2)cc1`, in the data set “physchem”, the solubility at 1.5 h, 200 µM was below 2 µM. Besides, in “in vitro”, the half-life at 1 µM was 22.3 min.

Regarding `O=C(Nc1ccc(-c2nc(N3CCOCC3)c3ncccc3n2)cc1)Nc1ccc(S(=O)(=O)Nc2ccccc2)cc1`, in the data set “physchem”, the solubility at 1.5 h, 200 µM is below 2 µM. The compound further yielded a half-life at 1 µM in the data set “in vitro” of 16.6 min.

`O=C(Nc1ccc(CCO)cc1)Nc1ccc(-c2nc(N3CCOCC3)c3ncccc3n2)cc1` showed a solubility at 1.5 h, 200 µM in the data set “physchem” below 2 µM. In addition, in “in vitro”, the half-life at 1 µM is above 60 min.

In “physchem”, `Oc1cccc(-c2nc(N3CCOCC3)c3oc4ncccc4c3n2)c1` [PI-103] gave a solubility at 1.5 h, 200 µM of 3.4 µM (≈ 1.18 µg/mL). In the data set “in vitro”, this compound had a half-life at 1 µM of 7.1 min.

The solubility is the concentration that dissolves in the medium under given conditions. One may read the half-life as the time needed for the level to fall by half in the phase considered. A higher half-life goes with slow loss.

The values are drawn from ChEMBL document CHEMBL4020805, “Design, synthesis and SAR of new-di-substituted pyridopyrimidines as ATP-competitive dual PI3Kα/mTOR inhibitors” (Bioorg Med Chem Lett, 2017).
